Test results published in paper PMC12767876, “Synthesis and evaluation of enantiomeric quinoline-2-carboxamides: positron emission tomography imaging agents for the translocator protein” (RSC Medicinal Chemistry, 2025).
Where two headings read alike, the source gives them in different places.

Assays:
TSPO [1] = biological target: T1, TSPO (Homo sapiens, UniProt P30536); experiment: [3H]PK11195 competition binding assay on homogenised human brain tissue (frontal cortex) from rs6971 genotyped HAB, MAB and LAB donors; conditions: for influence of rs6971 polymorphism on binding: HAB vs. LAB, unpaired t-test, p = 0.5273, n = 6 per genotype
Protocol: All studies using human tissue were conducted and approved in accordance with the National Health Service Research Ethics Committee Southeast Scotland (NHS-RECSE, Edinburgh Brain and Tissue Bank, 16/ES/0084). Informed consents were obtained from human participants of this study. The Edinburgh Brain and Tissue code and BNN reference numbers for all new tissue samples used in this study are: SD022/13 (BBN_15222), SD038/13 (BBN_18391), SD037/14 (BBN_23395), SD051/14 (BBN_24340), SD012/15 (BBN_25055), SD032/16 (0.01.29084), SD027/12 (BBN_13410), SD038/12 (BBN_4176), SD006/14 (BBN_20593), SD008/14 (BBN_20592), SD020/14 (BBN_22611), SD011/15 (BBN_24781), SD023/12 (BBN_3785), SD029/13 (BBN_15809), SD036/13 (BBN_18392), SD046/13 (BBN_18407), SD034/14 (BBN_22628) and SD031/15 (001.26124). […] Binding was terminated with the addition of ice cold buffer before being immediately filtered over Whatman GF/B filter paper (Whatman, UK) pre-treated with 0.3% polyethylenimine (Sigma-Aldrich, USA) using a Brandel harvester (Brandel, USA). Filter paper was then removed, placed into Optiphase HiSafe 3 (2.5 mL) (Perkin Elmer, USA) and counted 48 h later on a Hidex 300 SL (Hidex, Finland). […] All binding assays were performed in triplicate. GraphPad Prism version 9 (GraphPad Software, USA) was used to fit all binding affinity curves. Curves were fitted using a one-site binding model.

[2] = HPLC determination of partition coefficient (log P) using C18 column; assay type: physicochemical
Excerpt: (§1) The selection of potential candidates as neurological imaging agents requires evaluation of key physicochemical properties. […] For agents that rely primarily on passive diffusion, the membrane partition coefficient is particularly critical. […] Taken together, these physicochemical properties and in vivo studies support the potential of LW223 as a neurological imaging agent. Although the R-enantiomer of LW223 was used to determine the physicochemical properties in this study, these values are expected to be representative of the S-enantiomer, which is consistent with observations for other enantiomeric pairs.[32] [table]

TSPO [3] = biological target: T1, TSPO; parameters: method as in PMID 32859708; conditions: human brain (and heart) tissues, cited from earlier work
[4] = HPLC determination of membrane permeability (Pm) and membrane partition coefficient (Km) using immobilised artificial membrane (IAM) column; assay type: physicochemical
Excerpt: as §1

human serum albumin = human serum albumin (Homo sapiens, UniProt P02768); experiment: HPLC determination of plasma protein binding using human serum albumin coated column; assay type: in vitro ADME; conditions: read-out: % PPB (plasma protein binding) (converted)
Excerpt: as §1

[5] = parameters: method as in PMID 32859708, PMID 37795635; conditions: murine brain; cited from earlier work

T1 sequence (P30536 2-169): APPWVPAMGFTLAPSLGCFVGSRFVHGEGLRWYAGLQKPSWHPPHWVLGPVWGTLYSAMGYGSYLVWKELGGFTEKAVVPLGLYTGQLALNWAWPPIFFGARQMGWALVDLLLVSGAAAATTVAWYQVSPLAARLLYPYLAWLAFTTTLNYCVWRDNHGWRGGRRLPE
human serum albumin, sequence (P02768 25-609): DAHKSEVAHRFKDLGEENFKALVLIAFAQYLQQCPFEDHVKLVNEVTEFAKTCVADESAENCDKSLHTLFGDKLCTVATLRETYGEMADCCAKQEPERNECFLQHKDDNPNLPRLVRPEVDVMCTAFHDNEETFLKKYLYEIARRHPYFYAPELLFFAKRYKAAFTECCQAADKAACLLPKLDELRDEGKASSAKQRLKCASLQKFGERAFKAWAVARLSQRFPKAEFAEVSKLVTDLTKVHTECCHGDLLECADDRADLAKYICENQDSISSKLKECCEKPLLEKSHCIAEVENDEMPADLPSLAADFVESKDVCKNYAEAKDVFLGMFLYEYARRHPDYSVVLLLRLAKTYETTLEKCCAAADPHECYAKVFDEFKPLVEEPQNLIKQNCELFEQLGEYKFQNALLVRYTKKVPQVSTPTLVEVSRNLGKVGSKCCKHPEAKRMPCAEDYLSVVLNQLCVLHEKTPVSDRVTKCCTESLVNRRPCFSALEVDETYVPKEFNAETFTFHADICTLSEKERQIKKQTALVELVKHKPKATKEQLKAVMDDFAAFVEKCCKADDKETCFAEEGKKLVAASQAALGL

Row | SMILES | influence of rs6971 polymorphism on binding (TSPO [1]) | influence of rs6971 polymorphism on binding (TSPO [1]; listed as S-enantiomer) | fold lower affinity for TSPO compared to (R)-LW223 (TSPO [1]; human brain homogenate) | fold lower affinity for TSPO relative to PK11195 (TSPO [1]; human brain homogenate) | Ki (TSPO [1]; human brain homogenate, all genotypes (HAB, MAB, LAB), n = 18, 1 nM [3H]PK11195, 1.5 h at 4 °C, Kd […], mean ± SD, read-out: TSPO affinity (Ki)) | chromatographic logP [2] | influence of rs6971 polymorphism on binding (TSPO [3]) | influence of rs6971 polymorphism on binding (TSPO [3]; listed as (R)-LW223) | K m (membrane partition coefficient) [4] | fraction unbound (human serum albumin) | blood–brain barrier crossing and non-specific binding [5]
1 | CC[C@H](C)N(C)C(=O)c1nc2ccccc2c(-c2ccccc2)c1CF [(S)-LW223, (S)-(N-sec-Butyl)-3-(fluoromethyl)-N-methyl-4-phenylquinoline-2-carboxamide] | not significantly influenced by the rs6971 polymorphism | insensitive to the rs6971 polymorphism | 7.5 fold | 3.75 fold | 4.5 ± 0.7 nM |  |  |  |  |  | 
2 | CC[C@@H](C)N(C)C(=O)c1nc2ccccc2c(-c2ccccc2)c1CF [LW223, (R)-N-(sec-Butyl)-3-(fluoromethyl)-N-methyl-4-phenylquinoline-2-carboxamide] |  |  |  |  |  | 4.13 | unaffected by rs6971 | not significantly influenced by the rs6971 polymorphism | 195 | 0.08 | effectively crosses the BBB and exhibits low non-specific binding
3 | CCC(C)N(C)C(=O)c1cc2ccccc2c(-c2ccccc2Cl)n1 (centres unmarked) [PK11195, reference compound] |  |  |  |  |  | 3.98 |  |  | 184 | 0.08 | 
